Data: patent publication US20220281848A1, “PYRAZOLE-SUBSTITUTED PYRROLIDINONES AS HERBICIDES” (FMC Corporation, priority 2019, published 2022)

Key:
plants = assay: Test D post-emergence, other plants of Tables D2 and D4; type: in vivo; conditions: for damage to plant (100=total damage to plant; 0=no damage to plant), ABUTH / damage to plant (100=total damage to plant; 0=no damage to plant), AMARE / damage to plant (100=total damage to plant; 0=no damage to plant), BIDPI / damage to plant (100=total damage to plant; 0=no damage to plant), BRAPL / damage to plant (100=total damage to plant; 0=no damage to plant), CYPES / damage to plant (100=total damage to plant; 0=no damage to plant), DIGSA / damage to plant (100=total damage to plant; 0=no damage to plant), ECHCG / damage to plant (100=total damage to plant; 0=no damage to plant), ELEIN / damage to plant (100=total damage to plant; 0=no damage to plant), EPHHL / damage to plant (100=total damage to plant; 0=no damage to plant), GLXMA / damage to plant (100=total damage to plant; 0=no damage to plant), IPOHE / damage to plant (100=total damage to plant; 0=no damage to plant), ORYSA / damage to plant (100=total damage to plant; 0=no damage to plant), PANMI / damage to plant (100=total damage to plant; 0=no damage to plant), SETFA / damage to plant (100=total damage to plant; 0=no damage to plant), SORVU: post-emergence
In short: (§1)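 Seeds treated with herbicide safener; sown in soil; glasshouse, 16 h light, 65% humidity. Sprayed day 1 (pre) or ~day 12 (post). Spray in 0.2% v/v adjuvant. Scored 0–100 damage: 20 DAA pre, 15 d post.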

wheat = assay: Test D post-emergence, wheat seed treated with a herbicide safener; type: in vivo; conditions: "Cereals" Postemergent
In short: as §1

[1] = "Cereals" Postemergent, Rates 130, evaluated after 15 d
[2] = "Cereals" Postemergent, Rates 250, evaluated after 15 d
[3] = "Cereals" Postemergent, Rates 500, evaluated after 15 d

## CN1CC(c2cc(C(F)(F)F)n(C)n2)C(C(=O)Nc2ccc(F)nc2F)C1=O (racemic) [Compound 22]
plants; [1]
  ALOMY damage rating (100=total damage to plant; 0=no damage to plant): 0
  AVEFA damage rating (100=total damage to plant; 0=no damage to plant): 0
  BEAVA damage rating (100=total damage to plant; 0=no damage to plant): 0
  BROTE damage rating (100=total damage to plant; 0=no damage to plant): 0
  BRSNN damage rating (100=total damage to plant; 0=no damage to plant): 10
  CHEAL damage rating (100=total damage to plant; 0=no damage to plant): 0
  GALAP damage rating (100=total damage to plant; 0=no damage to plant): 0
  HORVW damage rating (100=total damage to plant; 0=no damage to plant): 0
  KCHSC damage rating (100=total damage to plant; 0=no damage to plant): 0
  LOLPE damage rating (100=total damage to plant; 0=no damage to plant): 0
  POAAN damage rating (100=total damage to plant; 0=no damage to plant): 0
  POLCO damage rating (100=total damage to plant; 0=no damage to plant): 0
  STEME damage rating (100=total damage to plant; 0=no damage to plant): 0
  VERPE damage rating (100=total damage to plant; 0=no damage to plant): 0
plants; [2]
  ALOMY damage rating (100=total damage to plant; 0=no damage to plant): 0
  AVEFA damage rating (100=total damage to plant; 0=no damage to plant): 0
  BEAVA damage rating (100=total damage to plant; 0=no damage to plant): 0
  BROTE damage rating (100=total damage to plant; 0=no damage to plant): 0
  BRSNN damage rating (100=total damage to plant; 0=no damage to plant): 10
  CHEAL damage rating (100=total damage to plant; 0=no damage to plant): 20
  GALAP damage rating (100=total damage to plant; 0=no damage to plant): 40
  HORVW damage rating (100=total damage to plant; 0=no damage to plant): 10
  KCHSC damage rating (100=total damage to plant; 0=no damage to plant): 0
  LOLPE damage rating (100=total damage to plant; 0=no damage to plant): 0
  POAAN damage rating (100=total damage to plant; 0=no damage to plant): 0
  POLCO damage rating (100=total damage to plant; 0=no damage to plant): 0
  STEME damage rating (100=total damage to plant; 0=no damage to plant): 0
  VERPE damage rating (100=total damage to plant; 0=no damage to plant): 50
plants; [3]
  ALOMY damage rating (100=total damage to plant; 0=no damage to plant): 10
  AVEFA damage rating (100=total damage to plant; 0=no damage to plant): 10
  BEAVA damage rating (100=total damage to plant; 0=no damage to plant): 10
  BROTE damage rating (100=total damage to plant; 0=no damage to plant): 0
  BRSNN damage rating (100=total damage to plant; 0=no damage to plant): 10
  CHEAL damage rating (100=total damage to plant; 0=no damage to plant): 30
  GALAP damage rating (100=total damage to plant; 0=no damage to plant): 10
  HORVW damage rating (100=total damage to plant; 0=no damage to plant): 20
  KCHSC damage rating (100=total damage to plant; 0=no damage to plant): 0
  LOLPE damage rating (100=total damage to plant; 0=no damage to plant): 0
  POAAN damage rating (100=total damage to plant; 0=no damage to plant): 0
  POLCO damage rating (100=total damage to plant; 0=no damage to plant): 10
  STEME damage rating (100=total damage to plant; 0=no damage to plant): 30
  VERPE damage rating (100=total damage to plant; 0=no damage to plant): 60
plants; SINAR, "Cereals" Postemergent, Rates 500, evaluated after 15 d
  SINAR damage rating (100=total damage to plant; 0=no damage to plant): 20
plants; rate 130, evaluated after 15 d
  damage to plant (100=total damage to plant; 0=no damage to plant), ABUTH: 0
  damage to plant (100=total damage to plant; 0=no damage to plant), AMARE: 0
  damage to plant (100=total damage to plant; 0=no damage to plant), BIDPI: 0
  damage to plant (100=total damage to plant; 0=no damage to plant), BRAPL: 0
  damage to plant (100=total damage to plant; 0=no damage to plant), CYPES: 0
  damage to plant (100=total damage to plant; 0=no damage to plant), DIGSA: 40
  damage to plant (100=total damage to plant; 0=no damage to plant), ECHCG: 0
  damage to plant (100=total damage to plant; 0=no damage to plant), ELEIN: 10
  damage to plant (100=total damage to plant; 0=no damage to plant), EPHHL: 0
  damage to plant (100=total damage to plant; 0=no damage to plant), GLXMA: 0
  damage to plant (100=total damage to plant; 0=no damage to plant), IPOHE: 10
  damage to plant (100=total damage to plant; 0=no damage to plant), ORYSA: 0
  damage to plant (100=total damage to plant; 0=no damage to plant), PANMI: 70
  damage to plant (100=total damage to plant; 0=no damage to plant), SETFA: 0
  damage to plant (100=total damage to plant; 0=no damage to plant), SORVU: 0
plants; rate 250, evaluated after 15 d
  damage to plant (100=total damage to plant; 0=no damage to plant), ABUTH: 10
  damage to plant (100=total damage to plant; 0=no damage to plant), AMARE: 0
  damage to plant (100=total damage to plant; 0=no damage to plant), BIDPI: 0
  damage to plant (100=total damage to plant; 0=no damage to plant), BRAPL: 50
  damage to plant (100=total damage to plant; 0=no damage to plant), CYPES: 0
  damage to plant (100=total damage to plant; 0=no damage to plant), DIGSA: 60
  damage to plant (100=total damage to plant; 0=no damage to plant), ECHCG: 40
  damage to plant (100=total damage to plant; 0=no damage to plant), ELEIN: 10
  damage to plant (100=total damage to plant; 0=no damage to plant), EPHHL: 20
  damage to plant (100=total damage to plant; 0=no damage to plant), GLXMA: 10
  damage to plant (100=total damage to plant; 0=no damage to plant), IPOHE: 30
  damage to plant (100=total damage to plant; 0=no damage to plant), ORYSA: 0
  damage to plant (100=total damage to plant; 0=no damage to plant), PANMI: 20
  damage to plant (100=total damage to plant; 0=no damage to plant), SETFA: 0
  damage to plant (100=total damage to plant; 0=no damage to plant), SORVU: 0
plants; rate 500, evaluated after 15 d
  damage to plant (100=total damage to plant; 0=no damage to plant), ABUTH: 30
  damage to plant (100=total damage to plant; 0=no damage to plant), AMARE: 0
  damage to plant (100=total damage to plant; 0=no damage to plant), BIDPI: 20
  damage to plant (100=total damage to plant; 0=no damage to plant), BRAPL: 70
  damage to plant (100=total damage to plant; 0=no damage to plant), CYPES: 10
  damage to plant (100=total damage to plant; 0=no damage to plant), DIGSA: 60
  damage to plant (100=total damage to plant; 0=no damage to plant), ECHCG: 50
  damage to plant (100=total damage to plant; 0=no damage to plant), ELEIN: 40
  damage to plant (100=total damage to plant; 0=no damage to plant), EPHHL: 30
  damage to plant (100=total damage to plant; 0=no damage to plant), GLXMA: 40
  damage to plant (100=total damage to plant; 0=no damage to plant), IPOHE: 50
  damage to plant (100=total damage to plant; 0=no damage to plant), ORYSA: 0
  damage to plant (100=total damage to plant; 0=no damage to plant), PANMI: 40
  damage to plant (100=total damage to plant; 0=no damage to plant), SETFA: 20
  damage to plant (100=total damage to plant; 0=no damage to plant), SORVU: 0
wheat; Rates 130, evaluated after 15 d
  TRZAW damage rating (100=total damage to plant; 0=no damage to plant): 0
wheat; Rates 250, evaluated after 15 d
  TRZAW damage rating (100=total damage to plant; 0=no damage to plant): 0
wheat; Rates 500, evaluated after 15 d
  TRZAW damage rating (100=total damage to plant; 0=no damage to plant): 10
